This is an account of results in patent US10538512B2, “Aminoacylindazole immunomodulators for treatment of autoimmune diseases” (The Rockefeller University, priority 2016, dated 2020).

SMILES strings stand for the structures. Bounds are passed on as bounds.

In one assay the target is T1, Human FXIIa (Homo sapiens, UniProt P00748).
T1 construct: active coagulation factor XII (FXIIa); purchased Enzyme Research Labs
T1 sequence (P00748 373-615 limits assumed): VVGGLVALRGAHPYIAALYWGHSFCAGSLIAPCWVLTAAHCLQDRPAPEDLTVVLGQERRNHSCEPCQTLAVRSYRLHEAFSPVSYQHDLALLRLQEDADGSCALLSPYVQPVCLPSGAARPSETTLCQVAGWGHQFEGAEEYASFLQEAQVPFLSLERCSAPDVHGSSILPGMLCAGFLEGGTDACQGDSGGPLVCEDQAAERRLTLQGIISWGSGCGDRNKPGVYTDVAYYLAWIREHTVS
T1 sequence (P00748 20-372 partner limits assumed): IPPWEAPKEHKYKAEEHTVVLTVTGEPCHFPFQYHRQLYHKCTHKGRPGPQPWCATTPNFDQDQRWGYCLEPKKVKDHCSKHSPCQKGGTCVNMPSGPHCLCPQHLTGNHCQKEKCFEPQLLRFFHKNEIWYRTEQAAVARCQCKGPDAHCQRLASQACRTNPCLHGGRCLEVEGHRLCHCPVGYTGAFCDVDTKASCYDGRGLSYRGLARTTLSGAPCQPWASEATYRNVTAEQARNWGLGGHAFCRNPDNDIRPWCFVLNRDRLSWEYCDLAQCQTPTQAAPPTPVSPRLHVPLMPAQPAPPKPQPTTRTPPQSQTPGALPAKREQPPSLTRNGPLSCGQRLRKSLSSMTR
In words: Factor XIIa (FXIIa) inhibitory activity, chromogenic substrate assay. It counts as biochemical. As to conditions: Human FXIIa 12.5 nM, Pefachrome XIIa 400 μM, 10 min preincubation. The procedure, abridged:
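Buffer was 0.5× HBSS with 25 mM HEPES pH 7.4 and 0.5× TBS-Tween 0.05%. Enzyme and compound (about 1–100 μM) were preincubated 10 min at room temperature, then Pefachrome XIIa was added at 400 μM final. Substrate cleavage was followed as the rate of A405 change at 37 °C.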

A further assay addresses T2, Human alpha-thrombin (Homo sapiens, UniProt P00734).
T2 construct: Human alpha-thrombin (Enzyme Research Labs); purchased Enzyme Research Labs
In words: Thrombin counterscreen for selectivity, fluorogenic substrate assay. It counts as biochemical. As to conditions: Human alpha-thrombin 12.5 nM, Boc-Val-Pro-Arg-AMC 20 μM, 10 min preincubation. The procedure: Counterscreens for Selectivity:
In a 96-well white opaque plate, 80 μl of assay buffer was added to each well. Test compounds were added, and serially diluted as above, to generate a concentration range of approximately 1-100 μM. […] 80 μl of this enzyme solution was added to the assay wells. The enzyme/compound mixtures were incubated for 10 minutes at room temperature. Fluorogenic substrate (Boc-Val-Pro-Arg-7-amido-4-methylcoumarin; Sigma) was added to assay wells at a final concentration of 20 μM. The assay plate was spun for 1 minute at 1500 g and then read at 37° C. in a SpectraMax M2 plate reader (λex=380 nm and λem=460 nm). Activity was quantified as the rate of change in fluorescence, which corresponds to the rate of substrate cleavage.
For orientation: Counterscreens check selectivity or assay interference.

As to `Nc1c2c(nn1C(=O)[C@@H]1CCNc3ccc(F)cc31)CC[C@H](O)C2` (relative stereo) [Example 134, ((5S*)-3-amino-5-hydroxy-4,5,6,7-tetrahydro-1H-indazol-2-yl)((4R*)-6-fluoro-1,2,3,4-tetrahydroquinolin-4-yl)methanone], the IC50 – broadly, the concentration needed to halve the response being measured – on Human FXIIa is 1.2 µM; on Human alpha-thrombin, > 75 µM. With `Nc1c2c(nn1C(=O)c1cccc3[nH]ccc13)CCCC2` (single isomer, unassigned) [Example 1, (3-Amino-4,5,6,7-tetrahydro-2H-indazol-2-yl)(1H-indol-4-yl)methanone], the values for the IC50 against Human FXIIa and against Human alpha-thrombin were 0.1 µM and 25 µM, respectively.

As for `Nc1nn(C(=O)c2cccc3[nH]ccc23)c2c1CCCC2` (single isomer, unassigned) [Example 2, (3-amino-4,5,6,7-tetrahydroindazol-1-yl)(1H-indol-4-yl)methanone], the IC50 at Human FXIIa and on Human alpha-thrombin was > 50 µM each time.

On to `Cc1c2c(nn1C(=O)c1cccc3[nH]ccc13)CCCC2` (single isomer, unassigned) [Example 3, (1H-Indol-4-yl)(3-methyl-4,5,6,7-tetrahydroindazol-2-yl)methanone], for which the 50% inhibitory concentration (IC50) on Human FXIIa turned out to be 5 µM; on Human alpha-thrombin it was 33 µM.

In the case of `Cc1nn(C(=O)c2cccc3[nH]ccc23)c2c1CCCC2` (single isomer, unassigned) [Example 4, (1H-indol-4-yl)(3-methyl-4,5,6,7-tetrahydroindazol-1-yl)methanone], the results for the IC50 on Human FXIIa and against Human alpha-thrombin were 65 µM and 45 µM, respectively. The corresponding values for `Nc1c2c(nn1C(=O)C1CCCc3ccccc31)CCCC2` (single isomer, unassigned) [Example 5, (S*)-(3-Amino-4,5,6,7-tetrahydroindazol-2-yl)(1,2,3,4-tetrahydronaphthalen-1-yl)methanone] are 1.7 µM and > 50 µM. For `Nc1c2c(nn1C(=O)C1CCCc3ccccc31)CCCC2` (single isomer, unassigned) [Example 6, (R*)-(3-amino-4,5,6,7-tetrahydroindazol-2-yl)(1,2,3,4-tetrahydronaphthalen-1-yl)methanone], the IC50 against Human FXIIa is ≥ 50 µM; on Human alpha-thrombin it was > 50 µM. Regarding `Cn1ccc2c(C(=O)n3nc4c(c3N)CCCC4)cccc21` (single isomer, unassigned) [Example 7, (3-Amino-4,5,6,7-tetrahydroindazol-2-yl)(1-methyl-1H-indol-4-yl)methanone], the IC50 came to 0.15 µM against Human FXIIa and 30 µM on Human alpha-thrombin. As for `Cn1ccc2c(C(=O)n3nc(N)c4c3CCCC4)cccc21` (single isomer, unassigned) [Example 8, (3-amino-4,5,6,7-tetrahydroindazol-1-yl)(1-methyl-1H-indol-4-yl)methanone], the IC50 against Human FXIIa and on Human alpha-thrombin was > 50 µM throughout. In the case of `Cc1cc2c(C(=O)n3nc4c(c3N)CCCC4)cccc2[nH]1` (single isomer, unassigned) [Example 9, (3-Amino-4,5,6,7-tetrahydroindazol-2-yl)(2-methyl-1H-indol-4-yl)methanone], the values for the IC50 against Human FXIIa and on Human alpha-thrombin were 0.02 µM and 40 µM, respectively.

In the case of `CCc1cscc1C(=O)n1nc2c(c1N)CCCC2` (single isomer, unassigned) [Example 11, (3-Amino-4,5,6,7-tetrahydroindazol-2-yl)(4-ethylthiophen-3-yl)methanone], the IC50 on Human FXIIa was 0.2 µM; against Human alpha-thrombin, > 50 µM. Take `CCc1cscc1C(=O)n1nc(N)c2c1CCCC2` (single isomer, unassigned) [Example 12, (3-amino-4,5,6,7-tetrahydroindazol-1-yl)(4-ethylthiophen-3-yl)methanone]: the half-inhibitory concentration (IC50) against Human FXIIa and on Human alpha-thrombin was > 50 µM in each case. Regarding `Nc1c2c(nn1C(=O)C1OCCc3ccccc31)CCCC2` (single isomer, unassigned) [Example 13, (3-Amino-4,5,6,7-tetrahydroindazol-2-yl)(isochroman-1-yl)methanone], the IC50 was found to be 5.6 µM on Human FXIIa and 77 µM on Human alpha-thrombin. For `Nc1nn(C(=O)C2OCCc3ccccc32)c2c1CCCC2` (single isomer, unassigned) [Example 15, (3-amino-4,5,6,7-tetrahydroindazol-1-yl)(isochroman-1-yl)methanone], the IC50 on Human FXIIa and against Human alpha-thrombin was > 100 µM throughout. As for `Cc1csc(C)c1C(=O)n1nc(N)c2c1CCCC2` (single isomer, unassigned) [Example 17, (3-amino-4,5,6,7-tetrahydroindazol-1-yl)(2,4-dimethylthiophen-3-yl)methanone], the IC50 at Human FXIIa and on Human alpha-thrombin was > 100 µM in each case. `CCc1csc(C)c1C(=O)n1nc2c(c1N)CCCC2` (single isomer, unassigned) [Example 18, (3-Amino-4,5,6,7-tetrahydroindazol-2-yl)(4-ethyl-2-methylthiophen-3-yl)methanone]: the IC50 was 5 µM against Human FXIIa and > 100 µM at Human alpha-thrombin. For `CCc1csc(C)c1C(=O)n1nc(N)c2c1CCCC2` (single isomer, unassigned) [Example 19, (3-amino-4,5,6,7-tetrahydroindazol-1-yl)(4-ethyl-2-methylthiophen-3-yl)methanone], the IC50 on Human FXIIa and against Human alpha-thrombin was > 100 µM each time. `Nc1c2c(nn1C(=O)c1cccc3c1ccn3-c1ccccc1)CCCC2` (single isomer, unassigned) [Example 20, (3-amino-4,5,6,7-tetrahydroindazol-2-yl)(1-phenyl-1H-indol-4-yl)methanone]: the results for the IC50 on Human FXIIa and against Human alpha-thrombin were 17.5 µM and > 100 µM, respectively. `Nc1nn(C(=O)c2cccc3c2ccn3-c2ccccc2)c2c1CCCC2` (single isomer, unassigned) [Example 21, (3-amino-4,5,6,7-tetrahydroindazol-1-yl)(1-phenyl-1H-indol-4-yl)methanone]: the IC50 on Human alpha-thrombin was > 100 µM. On to `Cc1sc2ccccc2c1C(=O)n1nc2c(c1N)CCCC2` (single isomer, unassigned) [Example 23, (3-Amino-4,5,6,7-tetrahydroindazol-2-yl)(2-methylbenzo[b]thiophen-3-yl)methanone], for which the values for the IC50 on Human FXIIa and against Human alpha-thrombin were 5 µM and > 100 µM, respectively.

In the case of `CN1CCC(C(=O)n2nc(N)c3c2CCCC3)c2ccccc21` (single isomer, unassigned) [Example 26, (3-amino-4,5,6,7-tetrahydroindazol-1-yl)(1-methyl-1,2,3,4-tetrahydroquinolin-4-yl)methanone], the IC50 on Human alpha-thrombin was > 80 µM.

The molecule `C=Cc1cc2c(C(=O)n3nc(N)c4c3CCCC4)cccc2[nH]1` (single isomer, unassigned) [Example 71, (3-amino-4,5,6,7-tetrahydroindazol-1-yl)(2-vinyl-1H-indol-4-yl)methanone] registered an IC50 against Human alpha-thrombin of 55 µM. For `Nc1c2c(nn1C(=O)[C@@H]1CCNc3ccccc31)CC[C@@H](O)C2` (single isomer, unassigned) [Example 166, ((5R*)-3-amino-5-hydroxy-4,5,6,7-tetrahydroindazol-2-yl)((4R*)-1,2,3,4-tetrahydroquinolin-4-yl)methanone], the IC50 on Human alpha-thrombin is > 100 µM. Molecule `Nc1c2c(nn1C(=O)c1ccnc3cc(Cl)ccc13)CCCC2` [Example 123, (3-amino-4,5,6,7-tetrahydro-2H-indazol-2-yl)(7-chloroquinolin-4-yl)methanone] yielded an IC50 at Human FXIIa of 2.5 µM. Consider `Nc1nn(C(=O)c2c[nH]c3ccccc23)c2c1CCCC2` [Example 155], for which the IC50 against Human alpha-thrombin was > 100 µM.

Turning to `Nc1c2c(nn1C(=O)c1ccnc3ccccc13)CCCC2` [Example 158], the IC50 against Human FXIIa turned out to be 13 µM. `Cc1cc2c(C(=O)n3cc4c(n3)CCCC4)cccc2[nH]1` [Example 159]: the IC50 at Human FXIIa came out at 0.15 µM. This IC50 is about 87-fold lower than that of the molecule before. For `Cc1cc2c(C(=O)n3ncc4c3CCCC4)cccc2[nH]1` [Example 160], the IC50 on Human FXIIa came to 6 µM. For the molecule `Cc1ccc2c(c1)N(C)CCC2C(=O)n1nc2c(c1N)CCCC2` (centres unmarked) [Example 163], on Human FXIIa, it took 1.5 µM to reach half-maximal inhibition (IC50). In the case of `Nc1nn(C(=O)C2CCNc3ccc(F)cc32)c2c1CC(F)(F)CC2` (centres unmarked) [Example 175, (3-amino-5,5-difluoro-4,5,6,7-tetrahydroindazol-1-yl)(6-fluoro-1,2,3,4-tetrahydroquinolin-4-yl)methanone], the IC50 at Human FXIIa came to 16 µM.

`Cc1cccc2c1NCCC2C(=O)n1nc(N)c2c1CCC=C2` (centres unmarked) [Example 196, (3-amino-6,7-dihydroindazol-1-yl)(8-methyl-1,2,3,4-tetrahydroquinolin-4-yl)methanone]: the IC50 against Human FXIIa came to 7.5 µM. Compared with the last molecule, the IC50 is about 2.1-fold lower.
